Patent US12649750B2, “Macrocyclic compounds, compositions, and methods of using thereof” (Sionna Therapeutics Inc., priority 2022, dated 2026)

Key:
NBD1 = target: T1, NBD1 (Homo sapiens, UniProt P13569); experiment: Aggregation analysis using differential static light scattering (DSLS), thermal stability of NBD1 (ΔTagg); type: binding; conditions: ΔTagg versus DMSO control, NBD1 0.2 mg/ml
T1 construct: Purified recombinant NBD1 was produced using previously described methods; made in house
Method in brief: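 NBD1 0.2 mg/ml, S200 buffer (50 mM Tris-HCl, 150 mM NaCl, 5 mM MgCl2, 2 mM ATP, 2 mM DTT, pH7.6) + 1% glycerol; cpd in DMSO; oil overlay. Ramp 25→70° C. at 1° C./min, DSLS images every 0.5° C. ΔTagg = Tagg (inflection) − mean DMSO Tagg.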

CFTR = target: T2, CFTR (Homo sapiens, UniProt P13569, DEL508-508); experiment: TECC24 AUC fold over DMSO @10 μM, CFTR-mediated transepithelial chloride transport in CF-HBE cells; type: cell-based; conditions: test agent AUC divided by DMSO vehicle AUC, primary CF-HBE cells, ΔF508 homozygous donor, 48 hours incubation
T2 construct: Primary human bronchial epithelial cells from a ΔF508 homozygous CF donor; host or cells: primary human bronchial epithelial cells (CF-HBE), ΔF508 homozygous donor
Method in brief: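 ΔF508-homozygous primary bronchial epithelial cells incubated 48 h at 36.5° C with compound (10 μM) in IL-13-containing medium, then TECC24 current-clamp recording in pH 7.4 Hepes saline with benzamil 10 μM, forskolin 10 μM, then CFTR inhibitor-172 20 μM. Equivalent Cl− current AUC between forskolin and inhibitor, expressed as fold over DMSO.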

T2 sequence (P13569 with tags, fused parts or gaps DEL508-508): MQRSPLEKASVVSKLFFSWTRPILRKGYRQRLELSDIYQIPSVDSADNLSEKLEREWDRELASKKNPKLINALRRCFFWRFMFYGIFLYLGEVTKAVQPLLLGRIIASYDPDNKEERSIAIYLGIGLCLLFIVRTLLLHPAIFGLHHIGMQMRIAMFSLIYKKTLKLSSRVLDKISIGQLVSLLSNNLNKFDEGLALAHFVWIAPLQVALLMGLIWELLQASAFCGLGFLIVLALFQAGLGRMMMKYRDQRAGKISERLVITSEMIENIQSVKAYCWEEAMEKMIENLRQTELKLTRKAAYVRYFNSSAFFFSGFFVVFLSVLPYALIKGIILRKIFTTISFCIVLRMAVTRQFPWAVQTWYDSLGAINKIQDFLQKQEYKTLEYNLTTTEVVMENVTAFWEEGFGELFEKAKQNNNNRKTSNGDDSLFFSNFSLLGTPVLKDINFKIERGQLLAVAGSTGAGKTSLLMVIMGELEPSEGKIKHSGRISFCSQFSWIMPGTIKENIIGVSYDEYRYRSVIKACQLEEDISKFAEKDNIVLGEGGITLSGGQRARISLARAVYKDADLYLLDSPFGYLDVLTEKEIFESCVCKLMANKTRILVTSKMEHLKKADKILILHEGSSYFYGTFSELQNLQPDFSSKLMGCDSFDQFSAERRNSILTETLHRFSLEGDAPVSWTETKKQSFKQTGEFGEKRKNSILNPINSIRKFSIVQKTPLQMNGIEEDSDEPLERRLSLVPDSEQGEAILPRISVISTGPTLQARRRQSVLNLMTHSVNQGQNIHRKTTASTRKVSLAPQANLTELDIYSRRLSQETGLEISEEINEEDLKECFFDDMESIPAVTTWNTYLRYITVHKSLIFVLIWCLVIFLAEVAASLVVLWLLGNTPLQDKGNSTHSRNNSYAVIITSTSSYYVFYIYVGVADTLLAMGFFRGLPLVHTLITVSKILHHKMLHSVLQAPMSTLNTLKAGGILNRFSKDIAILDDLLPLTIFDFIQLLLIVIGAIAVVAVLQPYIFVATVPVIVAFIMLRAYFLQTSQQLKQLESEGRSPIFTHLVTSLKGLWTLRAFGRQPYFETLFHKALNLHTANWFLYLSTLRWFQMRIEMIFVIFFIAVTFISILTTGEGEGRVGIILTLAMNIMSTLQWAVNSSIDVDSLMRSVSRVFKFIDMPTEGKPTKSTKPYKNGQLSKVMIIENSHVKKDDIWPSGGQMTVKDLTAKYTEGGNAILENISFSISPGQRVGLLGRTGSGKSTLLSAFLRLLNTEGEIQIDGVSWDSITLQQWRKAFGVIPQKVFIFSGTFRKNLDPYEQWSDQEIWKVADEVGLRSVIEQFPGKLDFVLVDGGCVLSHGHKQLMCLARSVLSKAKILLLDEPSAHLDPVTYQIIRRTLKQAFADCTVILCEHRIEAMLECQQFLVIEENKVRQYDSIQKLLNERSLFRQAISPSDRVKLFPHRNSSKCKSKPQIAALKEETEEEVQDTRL
T1 sequence (P13569 423-646 limits assumed): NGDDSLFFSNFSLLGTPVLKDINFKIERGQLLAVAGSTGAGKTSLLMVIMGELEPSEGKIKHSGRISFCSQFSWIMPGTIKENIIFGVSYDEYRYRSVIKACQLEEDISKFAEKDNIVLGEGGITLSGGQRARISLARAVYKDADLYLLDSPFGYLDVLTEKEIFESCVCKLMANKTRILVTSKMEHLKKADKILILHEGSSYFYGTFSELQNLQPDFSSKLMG

| SMILES | DSLS 3D (100 μM ΔT) (NBD1) | TECC (AUC, 10 μM) (CFTR) |
| --- | --- | --- |
| CC1(C)CCCC(c2cccc(CCC(=O)O)c2)n2cc(C#N)c(n2)-c2cc(ccc2F)Oc2c(F)cc3[nH]ccc3c2CCS(=O)(=O)C1 (single isomer, unassigned) [Compound 22B, 3-[3-[3-cyano-22,28-difluoro-10,10-dimethyl-12,12-dioxo-24-oxa-12lambda6-thia-5,19,30-triazapentacyclo[23.3.1.12,5.015,23.016,20]triaconta-1(29),2(30),3,15,17,20,22,25,27-nonaen-6-yl]phenyl]propanoic acid] | A (an ΔTagg value less than or equal to 5 °C is marked “A”) | B (a value between 12-20 is marked “B”) |
| CC1(C)CCCC(c2cccc(CCC(=O)O)c2)n2cc(C#N)c(n2)-c2cc(ccc2F)Oc2c(F)cc3[nH]ccc3c2CCS(=O)(=O)C1 (single isomer, unassigned) [Compound 22C, 3-[3-[3-cyano-22,28-difluoro-10,10-dimethyl-12,12-dioxo-24-oxa-12lambda6-thia-5,19,30-triazapentacyclo[23.3.1.12,5.015,23.016,20]triaconta-1(29),2(30),3,15,17,20,22,25,27-nonaen-6-yl]phenyl]propanoic acid] | C (a value greater than 10 °C and less than or equal to 25 °C is marked “C”) | C (a value between 20 and 80 is marked “C”) |
| CC1(C)CCCC(c2cccc(CCC(=O)O)c2)n2ccc(n2)-c2cc(ccc2F)Oc2c(F)cc3[nH]ccc3c2CCS(=O)(=O)C1 (single isomer, unassigned) [Compound 24A, 3-[3-[22,28-difluoro-10,10-dimethyl-12,12-dioxo-24-oxa-12lambda6-thia-5,19,30-triazapentacyclo[23.3.1.12,5.015,23.016,20]triaconta-1(29),2(30),3,15,17,20,22,25,27-nonaen-6-yl]phenyl]propanoic Acid] | B (a value above 5 °C and less than or equal to 10 °C is marked “B”) | A (a TECC value less than 12 is marked “A”) |
| CC1(C)CCCC(c2cccc(CCC(=O)O)c2)n2ccc(n2)-c2cc(ccc2F)Oc2c(F)cc3[nH]ccc3c2CCS(=O)(=O)C1 (single isomer, unassigned) [Compound 24B, 3-[3-[22,28-difluoro-10,10-dimethyl-12,12-dioxo-24-oxa-12lambda6-thia-5,19,30-triazapentacyclo[23.3.1.12,5.015,23.016,20]triaconta-1(29),2(30),3,15,17,20,22,25,27-nonaen-6-yl]phenyl]propanoic Acid] | C (a value greater than 10 °C and less than or equal to 25 °C is marked “C”) | A (a TECC value less than 12 is marked “A”) |
| CC1(C)CCCC(C)(c2cccc(CCC(=O)O)c2)c2c[nH]c(n2)-c2cc(ccc2F)Oc2c(F)cc3[nH]ccc3c2CCS(=O)(=O)C1 (single isomer, unassigned) [Compound 27A, 3-[3-(22,28-difluoro-6,10,10-trimethyl-12,12-dioxo-24-oxa-12lambda6-thia-3,19,30-triazapentacyclo[23.3.1.12,5.015,23.016,20]triaconta-1(29),2,4,15,17,20,22,25,27-nonaen-6-yl)phenyl]propanoic acid] | B (a value above 5 °C and less than or equal to 10 °C is marked “B”) | A (a TECC value less than 12 is marked “A”) |
| CC1(C)CCCC(C)(c2cccc(CCC(=O)O)c2)c2c[nH]c(n2)-c2cc(ccc2F)Oc2c(F)cc3[nH]ccc3c2CCS(=O)(=O)C1 (single isomer, unassigned) [Compound 27B, 3-[3-(22,28-difluoro-6,10,10-trimethyl-12,12-dioxo-24-oxa-12lambda6-thia-3,19,30-triazapentacyclo[23.3.1.12,5.015,23.016,20]triaconta-1(29),2,4,15,17,20,22,25,27-nonaen-6-yl)phenyl]propanoic acid] | C (a value greater than 10 °C and less than or equal to 25 °C is marked “C”) | C (a value between 20 and 80 is marked “C”) |
| CC(Cc1cccc(C2(C)CCOC(C)(C)CS(=O)(=O)CCc3c(c(F)cc4[nH]ccc34)Oc3ccc(F)c(c3)-c3nc2nn3C)c1)C(=O)O (single isomer, unassigned) [Compound 28A, 3-[3-(22,28-difluoro-3,6,10,10-tetramethyl-12,12-dioxo-9,24-dioxa-12lambda6-thia-3,4,19,30-tetrazapentacyclo[23.3.1.12,5.015,23.016,20]triaconta-1(29),2(30),4,15,17,20,22,25,27-nonaen-6-yl)phenyl]-2-methyl-propanoic Acid] | C (a value greater than 10 °C and less than or equal to 25 °C is marked “C”) | C (a value between 20 and 80 is marked “C”) |
| CC(Cc1cccc(C2(C)CCOC(C)(C)CS(=O)(=O)CCc3c(c(F)cc4[nH]ccc34)Oc3ccc(F)c(c3)-c3nc2nn3C)c1)C(=O)O (single isomer, unassigned) [Compound 28B, 3-[3-(22,28-difluoro-3,6,10,10-tetramethyl-12,12-dioxo-9,24-dioxa-12lambda6-thia-3,4,19,30-tetrazapentacyclo[23.3.1.12,5.015,23.016,20]triaconta-1(29),2(30),4,15,17,20,22,25,27-nonaen-6-yl)phenyl]-2-methyl-propanoic Acid] | A (an ΔTagg value less than or equal to 5 °C is marked “A”) | B (a value between 12-20 is marked “B”) |
| Cn1nc2nc1-c1cc(ccc1F)Oc1c(F)cc3[nH]ccc3c1CCS(=O)(=O)CC(C)(C)CCCC2(C)c1cccc(CC(C)(C)C(=O)O)c1 (single isomer, unassigned) [Compound 29A, 3-[3-(22,28-Difluoro-3,6,10,10-tetramethyl-12,12-dioxo-24-oxa-12lambda6-thia-3,4,19,30-tetrazapentacyclo[23.3.1.12,5.015,23.016,20]triaconta-1(29),2(30),4,15,17,20,22,25,27-nonaen-6-yl)phenyl]-2,2-dimethyl-propanoic acid] | C (a value greater than 10 °C and less than or equal to 25 °C is marked “C”) | C (a value between 20 and 80 is marked “C”) |
| Cn1nc2nc1-c1cc(ccc1F)Oc1c(F)cc3[nH]ccc3c1CCS(=O)(=O)CC(C)(C)CCCC2(C)c1cccc(CC(C)(C)C(=O)O)c1 (single isomer, unassigned) [Compound 29B, 3-[3-(22,28-Difluoro-3,6,10,10-tetramethyl-12,12-dioxo-24-oxa-12lambda6-thia-3,4,19,30-tetrazapentacyclo[23.3.1.12,5.015,23.016,20]triaconta-1(29),2(30),4,15,17,20,22,25,27-nonaen-6-yl)phenyl]-2,2-dimethyl-propanoic acid] | A (an ΔTagg value less than or equal to 5 °C is marked “A”) | A (a TECC value less than 12 is marked “A”) |
| Cn1nc2nc1-c1cc(ccc1F)C(O)c1c(F)cc3[nH]ccc3c1CCS(=O)(=O)CC(C)(C)CCCC2(C)c1cccc(CCC(=O)O)c1 (single isomer, unassigned) [Compound 30A, 3-[3-(22,28-difluoro-24-hydroxy-3,6,10,10-tetramethyl-12,12-dioxo-12lambda6-thia-3,4,19,30-tetrazapentacyclo[23.3.1.12,5.015,23.016,20]triaconta-1(29),2(30),4,15,17,20,22,25,27-nonaen-6-yl)phenyl]propanoic acid] | C (a value greater than 10 °C and less than or equal to 25 °C is marked “C”) | C (a value between 20 and 80 is marked “C”) |
| Cn1nc2nc1-c1cc(ccc1F)C(O)c1c(F)cc3[nH]ccc3c1CCS(=O)(=O)CC(C)(C)CCCC2(C)c1cccc(CCC(=O)O)c1 (single isomer, unassigned) [Compound 30B, 3-[3-(22,28-difluoro-24-hydroxy-3,6,10,10-tetramethyl-12,12-dioxo-12lambda6-thia-3,4,19,30-tetrazapentacyclo[23.3.1.12,5.015,23.016,20]triaconta-1(29),2(30),4,15,17,20,22,25,27-nonaen-6-yl)phenyl]propanoic acid] | B (a value above 5 °C and less than or equal to 10 °C is marked “B”) | B (a value between 12-20 is marked “B”) |
| Cn1nc2nc1-c1cc(ccc1F)C(O)c1c(F)cc3[nH]ccc3c1CCS(=O)(=O)CC(C)(C)CCCC2(C)c1cccc(CCC(=O)O)c1 (single isomer, unassigned) [Compound 30C, 3-[3-(22,28-difluoro-24-hydroxy-3,6,10,10-tetramethyl-12,12-dioxo-12lambda6-thia-3,4,19,30-tetrazapentacyclo[23.3.1.12,5.015,23.016,20]triaconta-1(29),2(30),4,15,17,20,22,25,27-nonaen-6-yl)phenyl]propanoic acid] | B (a value above 5 °C and less than or equal to 10 °C is marked “B”) | C (a value between 20 and 80 is marked “C”) |
| Cn1nc2nc1-c1cc(ccc1F)C(O)c1c(F)cc3[nH]ccc3c1CCS(=O)(=O)CC(C)(C)CCCC2(C)c1cccc(CCC(=O)O)c1 (single isomer, unassigned) [Compound 30D, 3-[3-(22,28-difluoro-24-hydroxy-3,6,10,10-tetramethyl-12,12-dioxo-12lambda6-thia-3,4,19,30-tetrazapentacyclo[23.3.1.12,5.015,23.016,20]triaconta-1(29),2(30),4,15,17,20,22,25,27-nonaen-6-yl)phenyl]propanoic acid] | C (a value greater than 10 °C and less than or equal to 25 °C is marked “C”) | A (a TECC value less than 12 is marked “A”) |
